Test results as given in patent publication US7071293B1, “Alpha helical peptides with broad spectrum antimicrobial activity that are insensitive to salt” (priority 1999, dated 2006).
Like-named read-outs stand apart in the source and are kept apart here. Ends that are not written are not given here.

Key:
P. aeruginosa PAO1 = details: for EC50 P. aeruginosa PAO1 μg/ml ± sem: average ± sem
E. coli ML-35p = details: for E. coli ML-35p MIC, 0 mM NaCl: underlay 0 mM NaCl; for E. coli ML-35p MIC, 0 mM NaCl / E. coli ML-35p MIC, 175 mM NaCl: Table 15; for E. coli ML-35p MIC, 175 mM NaCl: underlay 175 mM NaCl
E. coli DH-5α = details: DH-5α
[1] = ionic strength 25 mM, avg ± sem
[2] = ionic strength 175 mM, avg ± sem

Substance: LRRIIRKIIHIIK-NH2 [SMAP29X-13A]
- EC50 P. aeruginosa PAO1 μg/ml ± sem (P. aeruginosa PAO1; ionic strength 25 mM): 0.27 ± 0.03 µg/mL
- EC50 P. aeruginosa PAO1 μg/ml ± sem (P. aeruginosa PAO1; ionic strength 175 mM): 2.23 ± 0.41 µg/mL

Substance: LRRIIRKIIHIIKK [Peptide 12]
- P. aeruginosa PA-01 MIC, 0 mM NaCl (P. aeruginosa PA-01): 0.98 ± 0.05 µg/mL
- P. aeruginosa PA-01 MIC, 175 mM NaCl (P. aeruginosa PA-01): 11.9 ± 4.7 µg/mL
- S. aureus 930918-3 MIC, 0 mM NaCl (S. aureus 930918-3): 2.40 ± 0.17 µg/mL
- S. aureus 930918-3 MIC, 175 mM NaCl (S. aureus 930918-3): 79.1 ± 0 µg/mL
- P. aeruginosa MR-3007 MIC, 0 mM NaCl (P. aeruginosa MR 3007): 0.98 ± 0.08 µg/mL
- P. aeruginosa MR-3007 MIC, 175 mM NaCl (P. aeruginosa MR 3007): 46.3 ± 9.1 µg/mL
- E. coli ML-35p MIC, 0 mM NaCl (E. coli ML-35p): 0.68 ± 0.07 µg/mL
- E. coli ML-35p MIC, 175 mM NaCl (E. coli ML-35p): >79.1 µg/mL
- E. coli DH-5α MIC, 0 mM NaCl (E. coli DH-5α): 1.36 ± 0.19 µg/mL
- E. coli DH-5α MIC, 175 mM NaCl (E. coli DH-5α): 19.1 ± 5.0 µg/mL
- MRSA ATCC 33591 MIC, 0 mM NaCl (MRSA ATCC 33591): 11.0 ± 3.96 µg/mL
- MRSA ATCC 33591 MIC, 175 mM NaCl (MRSA ATCC 33591): >79.1 µg/mL

Substance: LRRIIRKIIHIIKK [SMAP29X-14B]
- EC50 P. aeruginosa PAO1 (P. aeruginosa PAO1; [1]): 0.55 ± 0.03 µg/mL
- EC50 P. aeruginosa PAO1 (P. aeruginosa PAO1; [2]): 5.55 ± 0.42 µg/mL

Substance: NIRRIIRKIIHIIKKY [SMAP29X-16D]
- EC50 P. aeruginosa PAO1 (P. aeruginosa PAO1; [1]): 0.70 ± 0.36 µg/mL
- EC50 P. aeruginosa PAO1 (P. aeruginosa PAO1; [2]): 3.64 ± 1.75 µg/mL

Substance: NLRRIIRKIIHIIKKY [SMAP29X-16A]
- EC50 P. aeruginosa PAO1 (P. aeruginosa PAO1; [1]): 0.90 ± 0.54 µg/mL
- EC50 P. aeruginosa PAO1 (P. aeruginosa PAO1; [2]): 1.78 ± 0.26 µg/mL

Substance: NLRRIIRKIIHIIKKY-NH2 [SMAP29X-16B]
- EC50 P. aeruginosa PAO1 (P. aeruginosa PAO1; [1]): 0.75 µg/mL
- EC50 P. aeruginosa PAO1 (P. aeruginosa PAO1; [2]): 3.78 µg/mL

Substance: RGLRALGRKIAHGVKAYG [SMAP29-18AA]
- EC50 P. aeruginosa PAO1 (P. aeruginosa PAO1; [1]): 0.62 ± 0.13 µg/mL
- EC50 P. aeruginosa PAO1 (P. aeruginosa PAO1; [2]): 7.85 ± 1.16 µg/mL

Substance: RIIRKIIHII-NH2 [SMAP29X-10]
- EC50 P. aeruginosa PAO1 μg/ml ± sem (P. aeruginosa PAO1; ionic strength 25 mM): 0.51 ± 0.00 µg/mL
- EC50 P. aeruginosa PAO1 μg/ml ± sem (P. aeruginosa PAO1; ionic strength 175 mM): 18.67 ± 0.97 µg/mL

Substance: RIIRKIIHIIK-NH2 [SMAP29X-11B]
- EC50 P. aeruginosa PAO1 μg/ml ± sem (P. aeruginosa PAO1; ionic strength 25 mM): 0.46 ± 0.02 µg/mL
- EC50 P. aeruginosa PAO1 μg/ml ± sem (P. aeruginosa PAO1; ionic strength 175 mM): 10.42 ± 0.26 µg/mL

Substance: RKFRNKIKEKLKKIG [CAP18-15a]
- EC50 P. aeruginosa PAO1 (P. aeruginosa PAO1; PAO1): >20 µg/mL
- EC50 P. aeruginosa PAO1 (P. aeruginosa PAO1; [1]): 1.54 ± 0.43 µg/mL
- MIC S. aureus [NaCl] High (S. aureus 930918-3; 930918-3, pH 7.4): >250 µg/mL
- MIC S. aureus [NaCl] Low (S. aureus 930918-3; 930918-3, pH 7.4): 19.5 µg/mL
- EC50 (E. coli DH5α; DH5α): 240 ± 70 nM
- EC50 E. coli DH5α (E. coli DH5α; [1]): 0.46 ± 0.12 µg/mL
- MIC P. aeruginosa [NaCl] High (P. aeruginosa MR 3007; MR 3007, pH 7.4): 5.3 µg/mL
- MIC P. aeruginosa [NaCl] Low (P. aeruginosa MR 3007; MR 3007, pH 7.4): 1.5 µg/mL
- MIC E. coli [NaCl] High (E. coli ML-35p; high salt underlay (10 mM sodium phosphate buffer +100 mM NaCl, pH 7.4), Table 13): 0.7 µg/mL
- MIC E. coli [NaCl] Low (E. coli ML-35p; low salt underlay (10 mM sodium phosphate buffer, pH 7.4), Table 13): 0.2 µg/mL
- MIC MRSA [NaCl] High (MRSA ATCC 33591; ATCC 33591, pH 7.4): >250 µg/mL
- MIC MRSA [NaCl] Low (MRSA ATCC 33591; ATCC 33591, pH 7.4): >250 µg/mL

Substance: RRIIRKIIHII-NH2 [SMAP29X-11A]
- EC50 P. aeruginosa PAO1 μg/ml ± sem (P. aeruginosa PAO1; ionic strength 25 mM): 0.38 ± 0.04 µg/mL
- EC50 P. aeruginosa PAO1 μg/ml ± sem (P. aeruginosa PAO1; ionic strength 175 mM): 4.92 ± 0.43 µg/mL

Substance: RRIIRKIIHIIK-NH2 [Peptide 17]
- P. aeruginosa PA-01 MIC, 0 mM NaCl (P. aeruginosa PA-01): 0.69 ± 0.08 µg/mL
- P. aeruginosa PA-01 MIC, 175 mM NaCl (P. aeruginosa PA-01): 17.2 ± 4.6 µg/mL
- S. aureus 930918-3 MIC, 0 mM NaCl (S. aureus 930918-3): 2.29 ± 0.07 µg/mL
- S. aureus 930918-3 MIC, 175 mM NaCl (S. aureus 930918-3): >79.1 µg/mL
- P. aeruginosa MR-3007 MIC, 0 mM NaCl (P. aeruginosa MR 3007): 0.72 ± 0.15 µg/mL
- P. aeruginosa MR-3007 MIC, 175 mM NaCl (P. aeruginosa MR 3007): >79.1 µg/mL
- E. coli ML-35p MIC, 0 mM NaCl (E. coli ML-35p): 0.29 ± 0.06 µg/mL
- E. coli ML-35p MIC, 175 mM NaCl (E. coli ML-35p): >79.1 µg/mL
- E. coli DH-5α MIC, 0 mM NaCl (E. coli DH-5α): 0.51 ± 0.09 µg/mL
- E. coli DH-5α MIC, 175 mM NaCl (E. coli DH-5α): 46.1 ± 16.1 µg/mL
- MRSA ATCC 33591 MIC, 0 mM NaCl (MRSA ATCC 33591): 11.9 ± 4.7 µg/mL
- MRSA ATCC 33591 MIC, 175 mM NaCl (MRSA ATCC 33591): >79.1 µg/mL

Substance: RRIIRKIIHIIK-NH2 [SMAP29X-12]
- EC50 P. aeruginosa PAO1 μg/ml ± sem (P. aeruginosa PAO1; ionic strength 25 mM): 0.31 ± 0.01 µg/mL
- EC50 P. aeruginosa PAO1 μg/ml ± sem (P. aeruginosa PAO1; ionic strength 175 mM): 3.83 ± 0.22 µg/mL

Substance: RRIIRKIIHIIKK-NH2 [SMAP29X-13B]
- EC50 P. aeruginosa PAO1 μg/ml ± sem (P. aeruginosa PAO1; ionic strength 25 mM): 0.22 ± 0.02 µg/mL
- EC50 P. aeruginosa PAO1 μg/ml ± sem (P. aeruginosa PAO1; ionic strength 175 mM): 1.51 ± 0.09 µg/mL
